From patent publication US20190111149A1, “ANTI-EGFR ANTIBODY DRUG CONJUGATE” (priority 2016, published 2019)
Bridge positions count the residues as written; N and C are the ends. Square brackets hold non-standard residues; d marks the D form. Ends that are not written are not given here. azido‑Phe = azido-phenylalanine, photoactivatable residue; Abu(3-Me-diazirin-3-yl) = CC1(CC[C@H](N)C(=O)O)N=N1; Bpa = N[C@@H](Cc1ccc(C(=O)c2ccccc2)cc1)C(=O)O

Target: Meditope enabled Trastuzumab
Experiment: BLI binding kinetics of meditope peptides to Meditope enabled Trastuzumab
Protocol: The binding kinetics of photo enabled meditopes to antibodies (e.g., meditope enabled Trastuzumab, T-mab, and P-mab) was tested.

Meditope enabled Trastuzumab, sequence (as listed by the source): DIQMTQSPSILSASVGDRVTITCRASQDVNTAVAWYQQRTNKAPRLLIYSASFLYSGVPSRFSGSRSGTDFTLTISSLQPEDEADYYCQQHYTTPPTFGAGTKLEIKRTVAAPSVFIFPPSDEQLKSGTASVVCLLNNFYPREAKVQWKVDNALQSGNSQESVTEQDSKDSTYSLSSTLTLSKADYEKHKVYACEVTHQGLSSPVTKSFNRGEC
Meditope enabled Trastuzumab, sequence (as listed by the source): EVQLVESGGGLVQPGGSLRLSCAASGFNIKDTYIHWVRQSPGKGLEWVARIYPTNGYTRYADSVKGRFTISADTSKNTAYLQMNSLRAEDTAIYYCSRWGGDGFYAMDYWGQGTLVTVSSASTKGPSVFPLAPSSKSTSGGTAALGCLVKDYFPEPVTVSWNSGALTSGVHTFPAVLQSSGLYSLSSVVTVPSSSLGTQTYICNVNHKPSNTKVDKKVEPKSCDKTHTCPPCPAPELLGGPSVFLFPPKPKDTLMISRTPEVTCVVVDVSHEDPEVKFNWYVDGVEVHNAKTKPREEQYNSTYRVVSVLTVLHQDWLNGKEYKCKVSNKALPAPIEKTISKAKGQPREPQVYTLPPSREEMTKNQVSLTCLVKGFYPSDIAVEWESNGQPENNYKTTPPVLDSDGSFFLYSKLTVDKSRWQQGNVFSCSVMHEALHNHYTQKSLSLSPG

Substance | Kd (Conc. 50 nM) [nM] | Kd (Conc. 100 nM) [nM] | kon (Conc. 100 nM) [M⁻¹ s⁻¹] | Kd (Conc. 200 nM) [nM] | kon (Conc. 200 nM) [M⁻¹ s⁻¹] | kon (Conc. 50 nM) [M⁻¹ s⁻¹]
Peptide 6: MMAD conjugated photoactivatable long cQFD photo-Met 9 (CQFDLSTR[Abu(3-Me-diazirin-3-yl)]LRCGGGK; disulfide 1-12 (inferred); also: MMAD conjugated) | < 0.001 | 2.51 | 3.65e+06 | 0.0191 | – | –
Peptide 12: MMAD conjugated photoactivatable long cQFD benzoyl-Phe 3 (CQ[Bpa]DLSTRRLRCGGGK; disulfide 1-12 (inferred); also: MMAD conjugated) | < 0.001 | 1.22 | 9.47e+06 | 73.3 | 286000 | –
Peptide 10: MMAD conjugated photoactivatable long cQFD azido-Phe 3 (CQ[azido‑Phe]DLSTRRLRCGGGK; disulfide 1-12 (inferred); also: MMAD conjugated) | < 0.001 | 18100 | 266 | 30200 | 537 | 816
